Data taken from ChEMBL document CHEMBL1131994, “Discovery of subtype-selective NMDA receptor ligands: 4-benzyl-1-piperidinylalkynylpyrroles, pyrazoles and imidazoles as NR1A/2B antagonists” (Bioorg Med Chem Lett, 1999).

Experiments:
[1] = target: T1, Glutamate NMDA receptor; Grin1/Grin2b (Rattus norvegicus, UniProt P35439+Q00960); experiment: Inhibition of NMDA response at NR1A/2B receptor expressed in Xenopus oocytes; type: cell-based, Oocyte
Target sequence in this assay (Q00960 whole entry, other chains not shown): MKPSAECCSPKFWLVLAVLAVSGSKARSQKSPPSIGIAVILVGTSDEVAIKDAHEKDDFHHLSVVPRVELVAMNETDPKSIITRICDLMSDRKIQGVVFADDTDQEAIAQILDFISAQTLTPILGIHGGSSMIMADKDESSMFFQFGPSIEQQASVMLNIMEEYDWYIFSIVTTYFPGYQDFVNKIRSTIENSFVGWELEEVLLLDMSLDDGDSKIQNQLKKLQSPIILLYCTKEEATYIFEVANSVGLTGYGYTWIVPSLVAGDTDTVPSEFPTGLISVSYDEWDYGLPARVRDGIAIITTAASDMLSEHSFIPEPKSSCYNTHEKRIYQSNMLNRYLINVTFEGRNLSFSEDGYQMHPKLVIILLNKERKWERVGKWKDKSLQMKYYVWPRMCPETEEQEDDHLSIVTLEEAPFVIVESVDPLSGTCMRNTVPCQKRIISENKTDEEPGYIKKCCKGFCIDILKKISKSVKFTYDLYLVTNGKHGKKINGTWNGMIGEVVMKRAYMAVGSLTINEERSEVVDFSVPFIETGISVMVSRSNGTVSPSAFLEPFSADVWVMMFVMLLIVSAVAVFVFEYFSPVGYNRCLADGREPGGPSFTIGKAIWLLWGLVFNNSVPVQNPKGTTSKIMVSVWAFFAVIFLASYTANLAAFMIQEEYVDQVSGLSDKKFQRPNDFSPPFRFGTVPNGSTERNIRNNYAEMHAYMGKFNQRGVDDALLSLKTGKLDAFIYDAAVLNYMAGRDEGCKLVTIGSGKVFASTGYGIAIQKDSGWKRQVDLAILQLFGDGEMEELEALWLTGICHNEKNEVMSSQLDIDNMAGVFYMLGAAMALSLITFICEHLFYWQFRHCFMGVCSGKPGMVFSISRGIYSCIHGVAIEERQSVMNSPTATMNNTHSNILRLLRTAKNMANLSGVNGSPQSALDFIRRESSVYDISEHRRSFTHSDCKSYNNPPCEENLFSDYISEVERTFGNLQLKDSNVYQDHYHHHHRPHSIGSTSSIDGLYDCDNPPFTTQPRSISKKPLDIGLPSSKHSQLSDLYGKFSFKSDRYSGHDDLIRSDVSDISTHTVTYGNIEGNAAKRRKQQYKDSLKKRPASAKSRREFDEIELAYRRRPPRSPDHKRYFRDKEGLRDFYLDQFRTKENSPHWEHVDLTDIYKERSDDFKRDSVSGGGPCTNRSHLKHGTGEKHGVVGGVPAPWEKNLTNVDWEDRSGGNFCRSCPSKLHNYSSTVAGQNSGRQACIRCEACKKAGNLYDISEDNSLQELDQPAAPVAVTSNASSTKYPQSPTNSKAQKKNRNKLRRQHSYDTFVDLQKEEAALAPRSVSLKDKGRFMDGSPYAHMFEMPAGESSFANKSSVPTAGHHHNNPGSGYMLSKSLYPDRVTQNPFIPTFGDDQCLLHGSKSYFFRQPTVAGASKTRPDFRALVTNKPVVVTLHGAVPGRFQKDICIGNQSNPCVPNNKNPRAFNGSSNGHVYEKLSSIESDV

[2] = tested on: Rattus norvegicus; experiment: Compound was tested in vivo for potentiation of L-DOPA effect in 6-hydroxydopamine-lesioned rat when administered per orally; type: functional; settings: po, read-out: MED
[3] = target: Glutamate NMDA receptor; Grin1/Grin2a (Rattus norvegicus, UniProt P35439+Q00959); experiment: Compound was tested in vitro for inhibition of NMDA response at cloned NR1A/2A receptor expressed in Xenopus oocytes; type: cell-based, frog, Oocyte
[4] = target: T2, Glutamate receptor ionotropic, NMDA 2C (Rattus norvegicus, UniProt P35439+Q00961); experiment: Compound was tested in vitro for inhibition of NMDA response at cloned NR1A/2C receptor expressed in Xenopus oocytes; type: cell-based, frog, Oocyte
[5] = target: T2, Glutamate receptor ionotropic, NMDA 2C; experiment: The compound was tested in vitro for activity against NR1A/2C sub type of NMDA receptor; set-up: species or system frog
[6] = target: T1, Glutamate NMDA receptor; Grin1/Grin2b; experiment: The compound was tested in vitro for activity against NR1A/2B sub type of NMDA receptor; set-up: species or system frog

T2 sequence (Q00961 whole entry, one chain of several): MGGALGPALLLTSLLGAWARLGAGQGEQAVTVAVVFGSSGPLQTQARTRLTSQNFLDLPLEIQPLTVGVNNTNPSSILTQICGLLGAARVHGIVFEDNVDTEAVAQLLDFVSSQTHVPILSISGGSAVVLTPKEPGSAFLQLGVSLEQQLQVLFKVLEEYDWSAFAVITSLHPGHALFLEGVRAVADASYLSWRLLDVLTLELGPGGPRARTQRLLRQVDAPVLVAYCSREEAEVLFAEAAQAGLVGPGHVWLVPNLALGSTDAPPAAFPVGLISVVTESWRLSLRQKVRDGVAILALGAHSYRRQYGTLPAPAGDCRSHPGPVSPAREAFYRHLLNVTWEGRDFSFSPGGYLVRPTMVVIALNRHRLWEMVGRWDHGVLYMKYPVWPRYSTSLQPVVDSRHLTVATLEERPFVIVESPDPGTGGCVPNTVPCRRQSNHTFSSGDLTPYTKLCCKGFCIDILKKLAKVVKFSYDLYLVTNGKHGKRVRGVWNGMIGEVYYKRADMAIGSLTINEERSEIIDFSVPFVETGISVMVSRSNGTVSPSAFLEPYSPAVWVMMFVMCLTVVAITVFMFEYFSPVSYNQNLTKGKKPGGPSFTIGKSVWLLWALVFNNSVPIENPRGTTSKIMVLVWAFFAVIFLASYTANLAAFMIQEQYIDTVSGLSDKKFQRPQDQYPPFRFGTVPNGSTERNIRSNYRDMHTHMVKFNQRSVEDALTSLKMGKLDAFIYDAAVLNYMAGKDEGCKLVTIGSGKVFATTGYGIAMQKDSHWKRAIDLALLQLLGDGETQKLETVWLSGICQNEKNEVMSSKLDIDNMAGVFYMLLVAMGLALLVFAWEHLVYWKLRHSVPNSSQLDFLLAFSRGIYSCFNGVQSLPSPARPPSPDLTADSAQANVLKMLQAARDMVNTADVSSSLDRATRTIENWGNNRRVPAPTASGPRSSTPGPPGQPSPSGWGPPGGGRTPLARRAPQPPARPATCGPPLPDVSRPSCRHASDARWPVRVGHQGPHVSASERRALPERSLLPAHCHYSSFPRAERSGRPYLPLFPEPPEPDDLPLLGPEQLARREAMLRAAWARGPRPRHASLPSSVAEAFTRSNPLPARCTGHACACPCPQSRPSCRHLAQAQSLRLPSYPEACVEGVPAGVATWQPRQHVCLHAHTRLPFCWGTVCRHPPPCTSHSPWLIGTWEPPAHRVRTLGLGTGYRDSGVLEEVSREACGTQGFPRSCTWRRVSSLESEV
Chain of Glutamate NMDA receptor; Grin1/Grin2a (Q00959 whole entry, looked up, other chains not shown): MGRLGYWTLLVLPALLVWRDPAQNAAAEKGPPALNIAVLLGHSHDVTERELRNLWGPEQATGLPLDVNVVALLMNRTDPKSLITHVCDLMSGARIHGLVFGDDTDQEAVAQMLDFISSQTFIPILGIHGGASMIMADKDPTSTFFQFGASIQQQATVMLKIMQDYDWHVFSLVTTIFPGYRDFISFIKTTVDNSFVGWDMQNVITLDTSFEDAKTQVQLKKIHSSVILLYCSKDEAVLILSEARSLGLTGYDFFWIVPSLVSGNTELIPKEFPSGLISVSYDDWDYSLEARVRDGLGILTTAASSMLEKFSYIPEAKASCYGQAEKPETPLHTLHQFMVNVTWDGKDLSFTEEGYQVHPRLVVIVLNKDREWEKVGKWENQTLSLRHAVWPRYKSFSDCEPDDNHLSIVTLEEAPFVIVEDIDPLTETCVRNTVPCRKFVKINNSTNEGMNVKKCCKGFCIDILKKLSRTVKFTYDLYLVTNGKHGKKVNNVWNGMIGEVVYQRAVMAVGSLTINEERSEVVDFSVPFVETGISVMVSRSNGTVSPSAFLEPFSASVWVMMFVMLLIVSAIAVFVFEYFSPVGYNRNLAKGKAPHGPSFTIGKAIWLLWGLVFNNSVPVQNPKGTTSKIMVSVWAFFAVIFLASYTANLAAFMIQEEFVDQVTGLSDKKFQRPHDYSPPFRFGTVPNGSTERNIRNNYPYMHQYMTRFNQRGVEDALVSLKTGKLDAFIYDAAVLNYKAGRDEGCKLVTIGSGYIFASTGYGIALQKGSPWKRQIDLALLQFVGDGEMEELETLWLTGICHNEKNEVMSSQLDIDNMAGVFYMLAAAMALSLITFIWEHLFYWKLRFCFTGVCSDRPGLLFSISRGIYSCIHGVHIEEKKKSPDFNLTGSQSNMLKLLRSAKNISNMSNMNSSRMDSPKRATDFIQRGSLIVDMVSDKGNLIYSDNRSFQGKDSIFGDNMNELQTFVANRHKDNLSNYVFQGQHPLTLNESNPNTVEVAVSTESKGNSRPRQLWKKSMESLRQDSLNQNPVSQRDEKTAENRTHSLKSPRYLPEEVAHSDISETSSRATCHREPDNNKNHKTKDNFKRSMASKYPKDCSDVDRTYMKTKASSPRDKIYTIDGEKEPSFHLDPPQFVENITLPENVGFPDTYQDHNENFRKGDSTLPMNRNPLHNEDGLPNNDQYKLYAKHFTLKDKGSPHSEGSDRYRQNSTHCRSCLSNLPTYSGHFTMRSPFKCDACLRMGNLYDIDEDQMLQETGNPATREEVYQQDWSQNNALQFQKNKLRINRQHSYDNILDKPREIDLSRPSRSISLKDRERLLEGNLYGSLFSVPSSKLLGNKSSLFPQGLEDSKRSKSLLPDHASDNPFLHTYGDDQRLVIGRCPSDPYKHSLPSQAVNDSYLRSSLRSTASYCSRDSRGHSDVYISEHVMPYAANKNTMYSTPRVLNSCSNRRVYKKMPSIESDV

| SMILES | IC50 [1] [µM] | minimal effective dose [2] [mg/kg] | IC50 [3] [µM] | IC50 [4] [µM] | IC50 [5] [µM] | IC50 [6] [µM] |
| --- | --- | --- | --- | --- | --- | --- |
| Cc1ccc(CC2CCN(CCC#Cc3c[nH]cn3)CC2)cc1 | 0.02 | 10 | 16 | 38 | – | – |
| OC1(c2ccccc2)CCN(CCC#Cc2c[nH]cn2)CC1 | 3.5 | – | 8.4 | 36 | – | – |
| Clc1ccc(CC2CCN(CCC#Cc3cnc[nH]3)CC2)cc1 | 0.028 | 10 | 26 | 80 | – | – |
| C(#Cc1cn[nH]c1)CN1CCC(Cc2ccccc2)CC1 | – | – | > 100 | – | > 100 | 0.82 |
| C(#Cc1cnc[nH]1)CCN1CCC(Cc2ccccc2)CC1 | 0.037 | 3 | 53 | 70 | – | – |
| Fc1ccc(CC2CCN(CCC#Cc3c[nH]cn3)CC2)cc1 | 0.05 | > 10 | 40 | > 100 | – | – |
| C(#Cc1cn[nH]c1)CCN1CCC(Cc2ccccc2)CC1 | 0.074 | 30 | 67 | > 100 | – | – |
| C(#Cc1cc[nH]c1)CCN1CCC(Cc2ccccc2)CC1 | 0.19 | 30 | 51 | > 100 | – | – |
| C(#Cc1cnc[nH]1)CN1CCC(Cc2ccccc2)CC1 | 0.12 | 10 | 38 | 34 | – | – |
| OC1(Cc2ccccc2)CCN(CCC#Cc2c[nH]cn2)CC1 | 0.22 | > 10 | > 100 | > 100 | – | – |
| C(#Cc1cnc[nH]1)CCN1CCC(c2ccccc2)CC1 | 0.81 | – | 1.4 | 5 | – | – |
| C(#Cc1cc[nH]c1)CN1CCC(Cc2ccccc2)CC1 | 1.1 | – | 53 | 56 | – | – |
